Reference: article PMC12904088, “Development of Dimethylsulfonium Probes for Broad Profiling of Methyllysine Reader Proteins” (Advanced Science, 2025)
Square brackets hold non-standard residues; d marks the D form. Ends that are not written are not given here. Lys(Me3) = C[N+](C)(C)CCCC[C@H](N)C(=O)O

Experiments:
[1] = tested on: PRC2; details: cited from earlier work
Text: (§1) Reader proteins, which specifically recognize methylation modifications at specific sites, are crucial for the biological functions of lysine methylation (Figure 1A).^[ [11], [12], [13], [14] ^] For example, BPTF is a reader of H3K4me3 that is in the NURF complex for RNA polymerase II activities.^[ [15] ^] CBX1 is a reader of H3K9me3 that promotes liquid‐liquid phase separation for the formation of heterochromatin. As a result, the local genes in chromatin are condensed and not accessible to transcription.^[ [16], [17], [18] ^] In addition, readers also play important roles in tumorigenesis. F ...

[2] = tested on: tumor growth; details: mouse models; cited from earlier work
Text: as §1

[3] = tested on: HeLa cell nuclei proteins; test: Proteomic experiment for inhibitor evaluation: probe 12 with MS31 competition; type: cell-based, Homo sapiens
Method: HeLa cells (1.8 × 10^7) were harvested, washed with pre‐cooled phosphate buffer saline (PBS), and lysed in hypotonic buffer (10 mM Tris, 15 mM NaCl, 1.5 mM MgCl2, 0.2 mM PMSF, pH 7.5) on ice with regular inversion for 10–15 min. After centrifugation at 200 g for 5 min at 4°C, the pellet was resuspended in hypotonic buffer and homogenized with three strokes of a loose pestle Dounce homogenizer. The intact nuclei were washed with a hypotonic buffer and collected by centrifugation. Then, the nuclei were resuspended in crosslink buffer (100 mM HEPES, 150 mM KCl, 1.5 mM MgCl2, 0.2 mM PMSF, pH 7.5) and divided into two groups (Group A and Group B), each of which contained three parallel samples. The general probe was added to Group A. The same amount of the general probe and extra competing peptides was added to Group B. These samples were transferred to a 24‐well plate, incubated on ice for 10 min, and irradiated under 313 nm UV for 20 min on ice. Next, the nuclei were washed with crosslinking buffer three times. […]
Label‐free quantification was performed with Proteome Discoverer 2.5, which was used for database searches against the Homo sapiens (Human) proteome database retrieved from UniProtKB (accession UP000005640). […]

[4] = tested on: SPIN2B; test: Western blot: inhibition of crosslinking of probe 12 by MS31; type: biochemical, human; details: 2.5 mM probe 12, 10 µM SPIN2B, 200 µM MS31, 0.5% DMSO, UV 30 min, streptavidin-HRP blot; Figure 5D
Method: BPTF, CBX1, and SPIN1 were expressed and purified as previously reported.^[ [54], [59] ^] Full‐length SPIN2B (residues 1–258) from human was cloned into the pET‐28a vector with an N‐terminal 6×His‐SUMO‐tag. It was over‐expressed in Rosetta (DE3) Escherichia coli cells by induction of 0.25 mM isopropyl β‐D‐thiogalactoside (IPTG) at 16 °C overnight when OD600 reached 0.6–0.8 in the LB medium. The harvested cells were suspended in lysis buffer (20 mM Tris, 150 mM NaCl, 0.2 mM PMSF, pH 7.5) and lysed by sonication; then, the cell lysate was centrifuged to remove the insoluble cell debris. The clarified supernatant was loaded on nickel resin equilibrated in lysis buffer. Afterward, the protein‐bound resin was washed sequentially with lysis buffer, high salt buffer (20 mM Tris, 500 mM NaCl, pH 7.5), and 20 mM imidazole buffer (20 mM Tris, 150 mM NaCl, 20 mM imidazole, pH 7.5). The target proteins were eluted by 200 mM imidazole buffer (20 mM Tris, 150 mM NaCl, 200 mM imidazole, pH 7.5), followed by the solution exchanged to storage buffer (20 mM Tris, 150 mM NaCl, pH 7.5). The product was concentrated, snap‐frozen, and stored at −80°C. […]
For SPIN1 and SPIN2B found in the volcano plot, 5 sets of samples were designed, respectively. […] Finally, the membranes were washed with 1×TBST buffer three times, and the protein bands were detected by enhanced chemiluminescence reagent.

[5] = molecular target: SPIN1; details: cited from earlier work
Text: (§2) To verify this approach, we selected MS31, a potent and selective fragment‐like inhibitor that primarily targets the H3K4me3 reader SPIN1 by binding to its Tudor2 domain.^[ [64], [65], [66] ^] […] We used peptide 12, which replaced desthiobiotin of peptide 5 with biotin to enhance binding affinity to streptavidin beads, for a prot ...

[6] = tested on: SPIN2B; details: cited from earlier work
Text: as §2

[7] = tested on: SPIN4; details: cited from earlier work
Text: as §2

[8] = tested on: broad panel of other epigenetic readers and writers; details: cited from earlier work
Text: as §2

[9] = tested on: reader proteins (BPTF, CBX1); test: In vitro crosslinking validation of general competition peptide; type: biochemical; details: 2.5 mM general probe, 7.5 mM peptide 13, 10 µM reader, pH 7.5, UV 30 min; Figure 6B
Method: Probes were added to the crosslinking buffer (100 mM HEPES, pH 7.5), followed by the addition of reader proteins. The mixture was transferred to 96‐well plates and incubated on ice for 10 min. After UV irradiation on ice at an energy of 720 mJ cm^−2, the samples were analyzed by UPLC‐Q‐TOF‐MS. The analytical yield was calculated based on the mass peak areas as previously reported.^[ [55] ^] The yield is calculated as the peak area of the desired product divided by the sum of the peak areas of the crosslinking products and the starting material, multiplied by 100%. For crosslinking readers with general probes: The mixture of 5 mM general probes and 10 µM reader proteins (BPTF, CBX1, CDYL2) was crosslinked by the General procedure for crosslinking for 30 min. For competition assays, the mixture of 2.5 mM general probes, 100 µM H3K4me3 (1‐15) or H3K9me3 (1‐15) peptide or 7.5 mM […]me3GG, 10 µM reader proteins (BPTF, CBX1) was crosslinked by the General procedure for crosslinking for 20 min (H3K4me3 or H3K9me3 for competition) or 30 min ([…]me3GG for competition). For Kinetics of reader crosslinking: The mixture of 0.625/1.25/2.5/5/10 mM general probe and 10 µM reader proteins was crosslinked by the General procedure for crosslinking for 20 min. […]

CS(=O)(=O)c1ccc(-c2cnc(NCc3ccco3)n3cnnc23)cc1 [EED226]
PRC2 activity inhibition (in words) [1]: effectively inhibits PRC2 activity
Tumor growth suppression (in words) [2]: suppresses tumor growth in mouse models

COc1c(CN)cc(CN)cc1OCCCN1Cc2ccccc2C1 [MS31]
Proteins significantly enriched (MS31 competition) ([3]; 2.5 mM probe 12 vs + 200 µM MS31, 313 nm UV 20 min, Log2(Fold Change) ≥0.5, p ≤ 0.05, n = 3): 21 proteins
Known MS31 targets identified among enriched proteins ([3]; 2.5 mM probe 12 vs + 200 µM MS31, Log2(Fold Change) ≥0.5, p ≤ 0.05, n = 3): the expected primary target SPIN1 was identified, along with two other SPIN family members, SPIN4 and SPIN2B
Inhibition of crosslinking between SPIN2B and probe 12 [4]: can be inhibited by MS31
Kd [5]: 91 nM
Binding affinity (in words) [6]: moderate binding affinity
Binding affinity (in words) [7]: moderate binding affinity
Selectivity (in words) [8]: high selectivity over a broad panel of other epigenetic readers and writers

RKGGGGGG[Lys(Me3)]GG [peptide 13]
Competition of general probe crosslinking by peptide 13 [9]: three equivalents of the peptide were sufficient to achieve complete competition
